Reference: patent publication US11702422B2, “Imidazopyridazines as modulators of IL-17” (Janssen Pharmaceutica NV, priority 2020, dated 2023)

Key:
[1] = target: IL-17A(FLAG-Tagged): IL-17RA(His-Tagged) (Homo sapiens, UniProt Q16552, K93Q); assay: IL-17A(FLAG-Tagged): IL-17RA(His-Tagged) Binding Disruption Eu-HTRF Assay; settings: IL-17A/IL-17RA binding disruption, simple average if tested more than once
Procedure, shortened: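 IC50 comes from a one-site competition fit of the HTRF 665/620 nm ratio. Compound dilutions (2-fold, 22 points) were held 1 h rt with FLAG-tagged IL-17A dimer, then His-tagged IL-17RA plus Eu-cryptate anti-FLAG and D2 anti-His antibodies were added for 2 h rt.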

[2] = system: IL-17A-induced G-CSF production in human normal keratinocyte (NHK); assay: NHK Assay: IL-17A-induced G-CSF production in human normal keratinocytes; assay type: cell-based; settings: 24 h, adult normal human keratinocytes, IL-17A 5 ng/mL, simple average if tested more than once
Procedure, shortened: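 G-CSF released by primary adult human keratinocytes after 24 h at 37° C was quantified by HTRF via standard curve to give IC50. Stimulus was 5 ng/mL IL-17A pre-mixed 1 h at rt with compound dilutions, in 5% FBS and 0.2% DMSO. Cell viability was assessed in parallel with CellTiter-Glo.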

UniProt Q16552, sequence (Q16552 with tags, fused parts or gaps K93Q): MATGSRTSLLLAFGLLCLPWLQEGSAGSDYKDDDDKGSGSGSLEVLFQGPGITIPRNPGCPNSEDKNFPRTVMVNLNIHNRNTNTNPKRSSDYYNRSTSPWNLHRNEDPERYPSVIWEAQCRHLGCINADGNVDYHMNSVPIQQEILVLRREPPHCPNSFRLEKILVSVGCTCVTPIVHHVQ

| Structure (SMILES) | IC50 [1] [nM] | IC50 ([2]; Homo sapiens, Keratinocyte) [nM] | IC50 [2] [nM] |
| --- | --- | --- | --- |
| Cc1nonc1C(=O)N[C@H](c1cn2ncc(C(NC(=O)CC3CC(F)(F)C3)C3CCOCC3)cc2n1)C1CCC(F)(F)CC1 (single isomer, unassigned) [Example 534, N—((S)-(7-((R*)-1-(2-(3,3-Difluorocyclobutyl)acetamido)(tetrahydro-2H-pyran-4-yl)methyl)imidazo[1,2-b]pyridazin-2-yl)(4,4-difluorocyclohexyl)methyl)-4-methyl-1,2,5-oxadiazole-3-carboxamide] | 96 | 70 | – |
| Cc1nocc1C(=O)N[C@H](c1cn2ncc(C(C)NC(=O)CCC(F)(F)F)cc2n1)C1CCC(F)(F)CC1 (stereo partly drawn) [Example 153, N-((1S)-(4,4-Difluorocyclohexyl)(7-(1-(4,4,4-trifluorobutanamido)ethyl)imidazo[1,2-b]pyridazin-2-yl)methyl)-3-methylisoxazole-4-carboxamide] | 420 | 480 | – |
| O=C(CCC(F)(F)F)N[C@@H](c1cnn2cc([C@@H](NC(=O)[C@H]3C[C@@H]3F)C3CCC(F)(F)CC3)nc2c1)C1CC1 [Example 98, (1R,2S)—N—((S)-(7-((R)-Cyclopropyl(4,4,4-trifluorobutanamido)methyl)imidazo[1,2-b]pyridazin-2-yl)(4,4-difluorocyclohexyl)methyl)-2-fluorocyclopropane-1-carboxamide] | 770 | 2300 | – |
| [2H]C([2H])([2H])n1nccc1C(=O)N[C@H](c1cn2ncc([C@H](NC(=O)CC3CC(F)(F)C3)C3CC3)cc2n1)C1CCC(F)(F)CC1 [Example 489, N—((S)-(7-((R)-Cyclopropyl(2-(3,3-difluorocyclobutyl)acetamido)methyl)imidazo[1,2-b]pyridazin-2-yl)(4,4-difluorocyclohexyl)methyl)-1-(methyl-d3)-1H-pyrazole-5-carboxamide] | 54 | 140 | – |
| O=C(CCC(F)(F)F)N[C@@H](c1cnn2cc([C@@H](NC(=O)c3cncc(C(F)(F)F)c3)C3CCC(F)(F)CC3)nc2c1)C1CC1 [Example 178, N—((S)-(7-((R)-Cyclopropyl(4,4,4-trifluorobutanamido)methyl)imidazo[1,2-b]pyridazin-2-yl)(4,4-difluorocyclohexyl)methyl)-5-(trifluoromethyl)nicotinamide] | 67 | 450 | – |
| C[C@@H](n1ncnc1C(=O)N[C@H](c1cn2ncc([C@H](NC(=O)CCC(F)(F)F)C3CC3)cc2n1)C1CCC(F)(F)CC1)C(F)(F)F [Example 478, N—((S)-(7-((R)-Cyclopropyl(4,4,4-trifluorobutanamido)methyl)imidazo[1,2-b]pyridazin-2-yl)(4,4-difluorocyclohexyl)methyl)-1-((R)-1,1,1-trifluoropropan-2-yl)-1H-1,2,4-triazole-5-carboxamide] | 450 | 850 | – |
| CC(C)n1nccc1C(=O)N[C@@H](COC(C)(C)C)c1cn2ncc(C(NC(=O)CCC(F)(F)F)C3CC3)cc2n1 (single isomer, unassigned) [Example 316, N—((R)-2-(tert-Butoxy)-1-(7-((R*)-cyclopropyl(4,4,4-trifluorobutanamido)methyl)imidazo[1,2-b]pyridazin-2-yl)ethyl)-1-isopropyl-1H-pyrazole-5-carboxamide] | 240 | – | 700 |
| CCc1nonc1C(=O)N[C@H](c1cn2ncc([C@H](NC(=O)CCC(F)(F)F)C3CC3)cc2n1)C1CCC(F)(F)CC1 [Example 156, N—((S)-(7-((R)-Cyclopropyl(4,4,4-trifluorobutanamido)methyl)imidazo[1,2-b]pyridazin-2-yl)(4,4-difluorocyclohexyl)methyl)-4-ethyl-1,2,5-oxadiazole-3-carboxamide] | 13 | 60 | – |
| Cc1nonc1C(=O)N[C@H](c1cn2ncc(C(CC#N)NC(=O)CC3CC(F)(F)C3)cc2n1)C1CCC(F)(F)CC1 (single isomer, unassigned) [Example 397, N—((S)-(7-((S*)-2-Cyano-1-(2-(3,3-difluorocyclobutyl)acetamido)ethyl)imidazo[1,2-b]pyridazin-2-yl)(4,4-difluorocyclohexyl)methyl)-4-methyl-1,2,5-oxadiazole-3-carboxamide] | 120 | – | 600 |
| CC(CC(=O)N[C@@H](c1cnn2cc([C@@H](NC(=O)c3conc3C3CC3)C3CCC(F)(F)CC3)nc2c1)C1CC1)C(F)(F)F (single isomer, unassigned) [Example 129, 3-Cyclopropyl-N—((S)-(7-((R)-cyclopropyl((S*)-4,4,4-trifluoro-3-methylbutanamido)methyl)imidazo[1,2-b]pyridazin-2-yl)(4,4-difluorocyclohexyl)methyl)isoxazole-4-carboxamide] | 51 | – | 250 |
| CCC(NC(=O)CC1CC(F)(F)C1)c1cnn2cc([C@@H](NC(=O)c3ccnn3C(C)C)C3CCC(F)(F)CC3)nc2c1 (single isomer, unassigned) [Example 520, N—((S)-(7-((S*)-1-(2-(3,3-Difluorocyclobutyl)acetamido)propyl)imidazo[1,2-b]pyridazin-2-yl)(4,4-difluorocyclohexyl)methyl)-1-isopropyl-1H-pyrazole-5-carboxamide] | 660 | 5000 | – |
| N#Cc1cncc(C(=O)N[C@H](c2cn3ncc([C@H](NC(=O)CCC(F)(F)F)C4CC4)cc3n2)C2CCC(F)(F)CC2)c1 [Example 450, 5-Cyano-N—((S)-(7-((R)-cyclopropyl(4,4,4-trifluorobutanamido)methyl)imidazo[1,2-b]pyridazin-2-yl)(4,4-difluorocyclohexyl)methyl)nicotinamide] | 810 | 1700 | – |
| O=C(CCC(F)(F)F)N[C@@H](c1cnn2cc([C@@H](NC(=O)C3(F)CC3)C3CCC(F)(F)CC3)nc2c1)C1CC1 [Example 60, N—((S)-(7-((R)-Cyclopropyl(4,4,4-trifluorobutanamido)methyl)imidazo[1,2-b]pyridazin-2-yl)(4,4-difluorocyclohexyl)methyl)-1-fluorocyclopropane-1-carboxamide] | 390 | 3500 | – |
| O=C(CCC(F)(F)F)N[C@@H](c1cnn2cc([C@@H](NC(=O)c3ccnnc3)C3CCC(F)(F)CC3)nc2c1)C1CC1 [Example 457, N—((S)-(7-((R)-Cyclopropyl(4,4,4-trifluorobutanamido)methyl)imidazo[1,2-b]pyridazin-2-yl)(4,4-difluorocyclohexyl)methyl)pyridazine-4-carboxamide] | 1200 | 2900 | – |
| O=C(CCC(F)(F)F)N[C@@H](c1cnn2cc([C@@H](NC(=O)c3cccc(OC(F)F)c3)C3CCC(F)(F)CC3)nc2c1)C1CC1 [Example 167, N—((S)-(7-((R)-Cyclopropyl(4,4,4-trifluorobutanamido)methyl)imidazo[1,2-b]pyridazin-2-yl)(4,4-difluorocyclohexyl)methyl)-3-(difluoromethoxy)benzamide] | 37 | 160 | – |
| O=C(CCC(F)(F)F)N[C@@H](c1cnn2cc([C@@H](NC(=O)[C@@H]3C[C@@H]3CF)C3CCC(F)(F)CC3)nc2c1)C1CC1 (relative stereo) [Example 365, (1R*,2S*)—N—((S)-(7-((R*)-Cyclopropyl(4,4,4-trifluorobutanamido)methyl)imidazo[1,2-b]pyridazin-2-yl)(4,4-difluorocyclohexyl)methyl)-2-(fluoromethyl)cyclopropane-1-carboxamide] | 1200 | > 20000 | – |
| N#CC1(C(NC(=O)C(F)(F)CC2CC2)c2cnn3cc([C@@H](NC(=O)c4nonc4C4CC4)C4CCC(F)(F)CC4)nc3c2)CC1 (single isomer, unassigned) [Example 436, N—((S)-(7-((R*)-(1-Cyanocyclopropyl)(3-cyclopropyl-2,2-difluoropropanamido)methyl)imidazo[1,2-b]pyridazin-2-yl)(4,4-difluorocyclohexyl)methyl)-4-cyclopropyl-1,2,5-oxadiazole-3-carboxamide] | 1300 | > 20000 | – |
| Cc1nonc1C(=O)N[C@H](c1cn2ncc(C(NC(=O)CCC(F)(F)F)C(C)C)cc2n1)C1CCC(F)(F)CC1 (single isomer, unassigned) [Example 546, N—((S)-(4,4-Difluorocyclohexyl)(7-((R*)-2-methyl-1-(4,4,4-trifluorobutanamido)propyl)imidazo[1,2-b]pyridazin-2-yl)methyl)-4-methyl-1,2,5-oxadiazole-3-carboxamide] | 640 | – | > 20000 |
| N#CC1(C(NC(=O)CC2CC(F)(F)C2)c2cnn3cc([C@@H](NC(=O)c4nonc4C4CC4)C4CCC(F)(F)CC4)nc3c2)CC1 (single isomer, unassigned) [Example 424, N—((S)-(7-((S*)-(1-Cyanocyclopropyl)(2-(3,3-difluorocyclobutyl)acetamido)methyl)imidazo[1,2-b]pyridazin-2-yl)(4,4-difluorocyclohexyl)methyl)-4-cyclopropyl-1,2,5-oxadiazole-3-carboxamide] | 47 | – | 40 |
| O=C(CCC(F)(F)F)N[C@@H](c1cnn2cc([C@@H](NC(=O)[C@@H]3C[C@H]3CF)C3CCC(F)(F)CC3)nc2c1)C1CC1 (relative stereo) [Example 362, (1R*,2R*)—N—((S)-(7-((R*)-Cyclopropyl(4,4,4-trifluorobutanamido)methyl)imidazo[1,2-b]pyridazin-2-yl)(4,4-difluorocyclohexyl)methyl)-2-(fluoromethyl)cyclopropane-1-carboxamide] | 4200 | > 20000 | – |
